# Results from PMC12113681, “Discovery, Biological Evaluation and Binding Mode Investigation of Novel Butyrylcholinesterase Inhibitors Through Hybrid Virtual Screening” (Molecules, 2025).
# Entries after “also recorded” stand apart in the source; their conditions may differ. Where two headings read alike, the source gives them in different places.
# Columns and labels:
# PC12 cells [1] = experiment: Neuroprotection in H2O2-induced injury model, MTT assay; format: cell-based; conditions: for neuroprotective activity: 5 to 50 μM; for viability at 50 µM: Rattus norvegicus, PC-12, read-out: cell viability
# Method: To assess the neuroprotective potential of the compounds, an H2O2-induced injury model in PC12 cells was established. PC12 cells were seeded into 96-well plates and incubated for 24 h, as described previously. […].
# PC12 cells [2] = experiment: in vitro; conditions: PC-12 cells
# Method: (§1) Well-differentiated rat adrenal pheochromocytoma cells (PC12) and the corresponding culture medium (WHAA24F163) were obtained from Procell Life Technology Co., Ltd. (Wuhan, China). The culture medium was supplemented with 10% fetal bovine serum (FBS, 164210-50) and 1% antibiotics (a penicillin–streptomycin mixture). PC12 cells were seeded into sterile 96-well plates at a density of 7000 cells per well (100 μL) and incubated for 24 h in a humidified incubator at 37 °C with 5% CO2. Subsequently, the cells were treated with varying concentrations of the test compounds (10, 20, and 50 μM in 100 μL) and cultured for an additional 24 h. Cell viability was assessed using the 3-(4,5-dimethylthiazol-2-yl)-2,5-diphenyltetrazolium bromide (MTT) assay (Xavier, Wuhan, China), following protocols described in a prior study.
# [3] = molecular target: T1, BChE (horse-serum, E.C. 3.1.1.8) (Equus caballus, UniProt P81908); experiment: biochemical
# T1 construct: Sigma, St. Louis, MO, USA, horse-serum, E.C; 3.1.1.8; purchased Sigma; host or cells: horse serum
# T1 sequence (P81908 whole entry): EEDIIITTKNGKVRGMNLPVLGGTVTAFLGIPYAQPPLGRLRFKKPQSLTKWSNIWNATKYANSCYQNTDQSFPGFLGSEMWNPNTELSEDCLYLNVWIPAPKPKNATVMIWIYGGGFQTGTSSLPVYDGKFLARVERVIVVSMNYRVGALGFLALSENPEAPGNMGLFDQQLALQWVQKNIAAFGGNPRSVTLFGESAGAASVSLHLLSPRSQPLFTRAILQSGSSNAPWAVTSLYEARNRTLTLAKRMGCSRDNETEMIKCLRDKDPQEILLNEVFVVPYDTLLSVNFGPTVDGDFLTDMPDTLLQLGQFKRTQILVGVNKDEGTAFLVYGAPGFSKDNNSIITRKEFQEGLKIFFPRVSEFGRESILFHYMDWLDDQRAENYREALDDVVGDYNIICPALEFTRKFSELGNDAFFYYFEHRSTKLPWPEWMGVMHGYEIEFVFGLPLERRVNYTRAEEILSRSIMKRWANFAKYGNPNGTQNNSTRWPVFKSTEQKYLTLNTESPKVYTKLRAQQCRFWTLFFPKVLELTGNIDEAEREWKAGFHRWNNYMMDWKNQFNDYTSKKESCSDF
# Method: The inhibitory activity of BChE was evaluated using 96-well plates on a microplate reader (Varioskan LUX, Thermo Fisher, Waltham, MA, USA) based on a modified Ellman method. Briefly, 25 μL of BChE solution (0.2 U·mL^−1, Sigma, St. Louis, MO, USA, horse-serum, E.C. 3.1.1.8) was combined with 65 μL of phosphate buffer (PBS, 0.1 M, pH 8.0), 125 μL of 5,5′-dithio-bis(2-nitrobenzoic acid) (DTNB, 3 mM), and 10 μL of a test compound at varying concentrations. Small molecules (50 mM, Topscience) were initially dissolved in dimethyl sulfoxide (DMSO) and subsequently diluted to desired concentrations using PBS. The reaction mixture was preincubated at 37 °C for 20 min. Following this, 25 μL of butyrylthiocholine iodide (BTC, 15 mM) was added, and the absorbance was measured at 412 nm in 30-s intervals for 3 min.
# BChE [4] = molecular target: T2, BChE (Equus caballus, UniProt P81908); experiment: Fluorescence quenching experiment (Stern-Volmer, Van't Hoff analysis); format: binding; conditions: for quenching rate constant (Kq): τ0 10^−8 s; for Kd: Ka (binding constant); for ∆H / ∆S: Van't Hoff, 298-310 K, regarded as a constant
# T2 sequence (P81908 whole entry): as above
# Method: Then, the Stern–Volmer Equation (1) was applied to analyze their quenching mechanisms.
# Their binding constants (Ka) and binding sites (n) (Table 4) with BChE were calculated using the double logarithmic Equation (2) (Figure 5G,H).
# Thermodynamic parameter analysis offers valuable insights into the predominant interaction forces governing the binding process between ligand and protein, which may encompass hydrogen bonding, electrostatic interactions, hydrophobic effects, van der Waals forces, and π-effects. By applying the Van’t Hoff Equation (3) and the Gibbs–Helmholtz Equation (4), the thermodynamic parameters—including change (ΔS), enthalpy change (ΔH), and Gibbs free energy change (ΔG)—for the interactions of piboserod and Rotigotine at various temperatures.
# Fluorescence quenching experiment. The fluorescence intensity of the inhibitor–BChE complex was measured using a microplate reader with an all-black 96-well plate at three different temperatures (298, 304, and 310 K). The excitation wavelength was set to 280 nm, and the emission spectrum was scanned over the range of 320–460 nm with a slit width of 5 nm. The BChE concentration was maintained constant at 5 U·mL^−1, while the compound concentration was varied in a gradient (0 to 50 μM). After mixing the compound and BChE, the samples were incubated at the designated temperature for 30 min prior to measurement. A PBS solution was used as a blank to account for background fluorescence and ensure accurate correction of the fluorescence intensity measurements.
# BChE [5] = molecular target: T2, BChE; experiment: BChE enzyme kinetic study (Lineweaver-Burk); format: biochemical; design: Sigma, St. Louis, MO, USA, horse-serum, E.C; 3.1.1.8; purchased Sigma; host or cells: horse serum; conditions: for inhibition type: Lineweaver-Burk plots; for reversibility of inhibition: plots of v vs [BChE] at different inhibitor concentrations
# Method: Kinetic studies were performed to clarify the inhibition mechanism of piboserod and Rotigotine. Figure 4A,B illustrates the relationship between BChE concentration ([BChE]) and catalytic rate (v) at different inhibitor concentrations ([I]). […] Lineweaver–Burk plots were used to characterize their inhibition types. […]. The inhibition constant (Ki) values were calculated based on Lineweaver–Burk secondary plots (Figure 4C,D). […]. […].
# Kinetic studies were conducted to measure reaction rates using the same methodology as in the enzyme inhibition experiments. […]. The relationship between reaction rates and enzyme concentrations was used to assess whether the inhibition was reversible. Additionally, reaction rates (v, △OD417 ·min^−1) were measured at a constant BChE concentration (0.2 U·mL^−1) while varying substrate concentrations (0.05, 0.1, 0.2, 0.4, 0.8 mM). A double-reciprocal Lineweaver–Burk plot of reaction rate versus substrate concentration was generated to elucidate the inhibition type based on the intersection points of the curves. Common inhibition types were identified as follows: competitive (intersects on the Y-axis), non-competitive (intersects on the X-axis), uncompetitive (parallel lines), and mixed (intersects in the second or third quadrant). […]
# in vitro = conditions: rat
# Method: as §1
# [6] = PC-12 cells, hydrogen peroxide injury
Structure (SMILES),IC50 [3] [µM],neuroprotective activity (PC12 cells [1]; [6]),viability at 50 µM (PC12 cells [1]) [%],Ksv (BChE [4]; 298 K) [L/mol],n (binding sites) (BChE [4]; 298 K),∆G (BChE [4]; 298 K) [kcal/mol],quenching rate constant (Kq) (BChE [4]; 298 K) [M⁻¹ s⁻¹],Ksv (BChE [4]; 304 K) [L/mol],n (binding sites) (BChE [4]; 304 K),∆G (BChE [4]; 304 K) [kcal/mol],Ksv (BChE [4]; 310 K) [L/mol],n (binding sites) (BChE [4]; 310 K),Kd (BChE [4]; 298 K) [µM],Kd (BChE [4]; 304 K) [µM],Kd (BChE [4]; 310 K) [µM],∆H (BChE [4]) [kcal/mol],∆S (BChE [4]) [J·mol^−1·K^−1],Ki (BChE [5]) [µM],inhibition type (BChE [5]),reversibility of inhibition (BChE [5]),also measured
CN1C[C@H](CNC(=O)OCc2ccccc2)C[C@@H]2c3cccc4c3c(cn4C)C[C@H]21 [Metergoline],18.4 ± 3.29,,,,,,,,,,,,,,,,,,,,"neuroprotective effect (PC12 cells [1]; PC-12 cells, hydrogen peroxide injury, low concentrations (5–10 μM)): modest neuroprotective effects; neurotoxicity (PC12 cells [2]; lowest concentration (10 μM)): no neurotoxicity; cytotoxicity (PC12 cells [2]; maximum concentration): higher cytotoxicity than that of Tacrine"
CCCN(CCc1cccs1)[C@H]1CCc2c(O)cccc2C1 [Rotigotine],12.8 ± 4.22,significant neuroprotective activities,70,2640,1.066,-5.067,2.64e+11,2250,1.022,-4.787,1540,0.975,19.7,34.5,68.1,-18.98,−195.34,6.76,non-competitive inhibitor; also recorded: non-competitive inhibition,reversibly inhibit BChE,
COc1cc2c(NC3CCN(C)CC3)nc(N3CCCN(C)CC3)nc2cc1OCc1ccccc1 [TM2-115],,,,,,,,,,,,,,,,,,,,,IC50 ([3]; read-out: IC50): ~50 µM
Nc1c2c(nc3ccccc13)CCCC2 [Tacrine],,,,,,,,,,,,,,,,,,,,,viability at 50 µM (in vitro): 65%
CCCCN1CCC(CNC(=O)c2c3n(c4ccccc24)CCCO3)CC1 [piboserod],15.3 ± 3.84,significant neuroprotective activities,66,5250,1.052,-5.373,5.25e+11,4720,1.035,-5.308,4250,1.014,11.6,14.9,20.4,-8.549,−44.61,10.7,mixed inhibitor; also recorded: mixed-type inhibition,reversibly inhibit BChE,∆G (BChE [4]; 310 K): -5.244 kcal/mol; α value (ratio of non-competitive to competitive inhibition constants) (BChE [5]; Lineweaver-Burk secondary plots): 3.01
